Measured values: patent US9982005B2, “Macrolides and methods of their preparation and use” (President and Fellows of Harvard College, priority 2013, dated 2018)
Values after ≈ are worked out from the molar mass of the structure shown. Read-outs that look alike come from different tables or passages of the source.

Legend:
Assay type in all cases: cell-based
A. baumannii strains = test: MIC against A. baumannii strains (Table M8); conditions: Acinetobacter baumannii, BAA747, A. baumannii BAA747-1
[1] = tested on: SA506 S. aureus ermA positive msrA unknown; test: broth dilution MIC, S. aureus SA506; conditions: Staphylococcus aureus
Outline: (§1)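 Broth dilution (CLSI standard) gave the minimum inhibitory concentrations. Resistance genotypes in the panel can be constitutive or inducible.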

[2] = tested on: Spn1533 S. pneumoniae ermB positive mefA positive; test: broth dilution MIC, S. pneumoniae Spn1533; conditions: Streptococcus pneumoniae
Outline: as §1

[3] = tested on: Spn 106 S. pneumonia ATCC49619; test: broth dilution MIC, S. pneumoniae Spn 106; conditions: Streptococcus pneumoniae
Outline: as §1

[4] = tested on: Spn1537 S. pneumoniae ermB positive mefA positive; test: broth dilution MIC, S. pneumoniae Spn1537; conditions: Streptococcus pneumoniae
Outline: as §1

[5] = tested on: SA1708 S. aureus ermA positive msrA negative; test: broth dilution MIC, S. aureus SA1708; conditions: Staphylococcus aureus
Outline: as §1

S. pneumoniae strains = test: MIC against S. pneumoniae strains (Tables M7, M8); conditions: Streptococcus pneumoniae
Text: CLSI standard procedures for broth dilution MIC determination were used. […] These genotypes can be constitutive or inducible.

E. coli strains = test: MIC against E. coli strains (Table M7); conditions: Escherichia coli, ATCC25922, E. coli ATCC 25922
Outline: as §1

[6] = tested on: HI175 H. influenzae ATCC49247; test: broth dilution MIC, H. influenzae HI175; conditions: Haemophilus influenzae
Text: (§2) We have collected MIC data for a total of 50 novel macrolides that this platform has produced against over 21 unique strains of B. subtilis, E. coli, S. aureus, S. pneumoniae, and H. influenzae, including several multidrug-resistant strains, with a special focus on macrolide resistant mechanisms (vide supra). Azithromycin was included as a control macrolide. CLSI standard procedures for broth dilution MIC determination were used. […] These genotypes can be constitutive or inducible. The finding that C4-epi (unnatural) isomers of the “azaketolide” macrolide class have enhanced activities relative to C4 natural isomers is very exciting.

[7] = tested on: SA557 S. aureus ermA unknown msrA positive; test: broth dilution MIC, S. aureus SA557; conditions: Staphylococcus aureus; SA557 S. aureus ermA unknown msrA positive; read-out: MIC
Outline: as §1

[8] = tested on: Spn1427 S. pneumoniae ermB positive mefA negative; test: broth dilution MIC, S. pneumoniae Spn1427; conditions: Streptococcus pneumoniae
Outline: as §1

[9] = tested on: SA1707 S. aureus ermA negative msrA positive; test: broth dilution MIC, S. aureus SA1707; conditions: Staphylococcus aureus
Outline: as §1

HI281 H. influenzae = test: broth dilution MIC, H. influenzae HI281; conditions: Haemophilus influenzae
Text: as §2

H. influenzae strains = test: MIC against H. influenzae strains (Table M8); conditions: Haemophilus influenzae
Outline: as §1

S. aureus strains = test: MIC against S. aureus strains (Table M7); conditions: Staphylococcus aureus
Outline: as §1

[10] = tested on: SA183 S. aureus ermA positive msrA unknown; test: broth dilution MIC, S. aureus SA183; conditions: Staphylococcus aureus
Outline: as §1

[11] = tested on: SA101 S. aureus ATCC29213; test: broth dilution MIC, S. aureus SA101; conditions: Staphylococcus aureus, ATCC29213, SA101 S. aureus ATCC29213; read-out: MIC
Outline: as §1

E. faecalis strains = test: MIC against E. faecalis strains (Table M8); conditions: Enterococcus faecalis, E. faecalis 29212
[12] = tested on: SA418 S. aureus ermA negative msrA positive; test: broth dilution MIC, S. aureus SA418; conditions: Staphylococcus aureus
Outline: as §1

K. pneumoniae strains = test: MIC against K. pneumoniae strains (Table M8); conditions: Klebsiella pneumoniae, K. pneumoniae 10031
[13] = tested on: Spn1509 S. pneumoniae ermB positive mefA negative; test: broth dilution MIC, S. pneumoniae Spn1509; conditions: Streptococcus pneumoniae; Spn1509 S. pneumoniae ermB positive mefA negative; read-out: MIC
Outline: as §1

[14] = tested on: Spn160 S. pneumoniae ermB unknown mefA positive; test: broth dilution MIC, S. pneumoniae Spn160; conditions: Streptococcus pneumoniae; Spn160 S. pneumoniae ermB unknown mefA positive; read-out: MIC
Outline: as §1

EC882 E. coli imp = test: broth dilution MIC, E. coli EC882; conditions: Escherichia coli
Outline: as §1

[15] = tested on: BS1723 B. subtilis BS168 WT wild type; test: broth dilution MIC, B. subtilis BS1723; conditions: Bacillus subtilis, BS1723 B. subtilis BS168 WT wild type; read-out: MIC
Outline: as §1

BS1725 B. subtilis ermC = test: broth dilution MIC, B. subtilis BS1725; conditions: Bacillus subtilis
Outline: as §1

EC878 E. coli tolC = test: broth dilution MIC, E. coli EC878; conditions: Escherichia coli
Outline: as §1

EC107 E. coli ATCC25922 = test: broth dilution MIC, E. coli EC107; conditions: Escherichia coli, read-out: MIC
Outline: as §1

[16] = Spn 106 S. pneumonia ATCC49619, read-out: MIC
[17] = S. pneumoniae 160, read-out: MIC S. pneumonae (160)
[18] = S. pneumoniae 1509, read-out: MIC S. pneumoniae (1509)
[19] = S. pneumoniae 1533, read-out: MIC S. pneumoniae (1533)
[20] = S. pneumoniae 1537, read-out: MIC S. pneumoniae (1537)
[21] = S. pneumoniae 49619, read-out: MIC S. pneumoniae (49619)
[22] = H. influenzae 49247, read-out: MIC H. influenzae (49247)
[23] = H. influenzae 49766, read-out: MIC H. influenzae (49766)
[24] = ATCC29213, S. aureus ATCC 29213, read-out: MIC S. aureus (ATCC 29213)
[25] = S. aureus 506, read-out: MIC S. aureus (506)
[26] = S. aureus 1708, read-out: MIC S. aureus (1708)
[27] = USA300, S. aureus USA300, read-out: MIC S. aureus (USA300)

Structure (SMILES) | MIC (A. baumannii strains) [µg/mL] | MIC [1] [µg/mL] | MIC [2] [µg/mL] | MIC [3, 16] [µg/mL] | MIC [4] [µg/mL] | MIC [5] [µg/mL] | MIC (S. pneumoniae strains; [17]) [µg/mL] | MIC (S. pneumoniae strains; [18]) [µg/mL] | MIC (S. pneumoniae strains; [19]) [µg/mL] | MIC (S. pneumoniae strains; [20]) [µg/mL] | MIC [6] [µg/mL] | MIC [7] [µg/mL] | MIC [8] [µg/mL] | MIC [9] [µg/mL] | MIC (HI281 H. influenzae) [µg/mL] | MIC [10] [µg/mL] | MIC [11] [µg/mL] | MIC [12] [µg/mL] | MIC [13] [µg/mL] | MIC [14] [µg/mL] | further results
CC[C@H]1OC(=O)C(C)(F)C(=O)[C@H](C)[C@@H](O[C@@H]2OC(C)CC(N(C)C)C2O)[C@](C)(OC)C[C@@H](C)CN(C)[C@H](C)[C@H]2N(CCCCn3cc(-c4cccc(N)c4)nn3)C(=O)O[C@]12C (stereo partly drawn) [FSM-20797] | > 32 | > 32 | > 32 | ≤ 0.0156 | > 32 | 8 (≈ 9.3 µM) | 0.25 (≈ 0.291 µM) | 16 (≈ 18.6 µM) | > 32 | > 32 | 8 (≈ 9.3 µM) | 8 (≈ 9.3 µM) | 32 (≈ 37.2 µM) | 8 (≈ 9.3 µM) | 32 (≈ 37.2 µM) | > 32 | 4 (≈ 4.65 µM) | 4 (≈ 4.65 µM) | 4 (≈ 4.65 µM) | 0.125 (≈ 0.145 µM) | MIC (S. pneumoniae strains; [21]): 0.5 µg/mL (≈ 0.581 µM); MIC (E. coli strains): 32 µg/mL (≈ 37.2 µM); MIC (H. influenzae strains; [22]): 4 µg/mL (≈ 4.65 µM); MIC (H. influenzae strains; [23]): 16 µg/mL (≈ 18.6 µM); MIC (S. aureus strains; [24]): 8 µg/mL (≈ 9.3 µM); MIC (S. aureus strains; [25]): > 32 µg/mL; MIC (S. aureus strains; [26]): 8 µg/mL (≈ 9.3 µM); MIC (S. aureus strains; [27]): 8 µg/mL (≈ 9.3 µM); MIC (E. faecalis strains): 1 µg/mL (≈ 1.16 µM); MIC (K. pneumoniae strains): 8 µg/mL (≈ 9.3 µM)
CC[C@H]1OC(=O)C(C)(F)C(=O)[C@@H](C)[C@@H](O[C@@H]2OC(C)CC(N(C)C)C2O)[C@](C)(OC)C[C@@H](C)CN[C@H](C)[C@H]2N(CCCCn3cc(-c4ccccn4)nn3)C(=O)O[C@]12C (stereo partly drawn) [FSM-20716] |  | > 32 | > 32 | 0.25 (≈ 0.3 µM) | > 32 | 32 (≈ 38.5 µM) |  |  |  |  | 8 (≈ 9.62 µM) | 16 (≈ 19.2 µM) | > 32 | 16 (≈ 19.2 µM) | > 32 | > 32 | 8 (≈ 9.62 µM) | 16 (≈ 19.2 µM) | 8 (≈ 9.62 µM) | 0.5 (≈ 0.601 µM) | MIC (EC882 E. coli imp): 0.25 µg/mL (≈ 0.3 µM); MIC [15]: 8 µg/mL (≈ 9.62 µM); MIC (BS1725 B. subtilis ermC; BS1725 B. subtilis ermC (+ery)): > 32 µg/mL; MIC (BS1725 B. subtilis ermC; BS1725 B. subtilis ermC (−ery)): 4 µg/mL (≈ 4.81 µM); MIC (EC878 E. coli tolC): 1 µg/mL (≈ 1.2 µM); MIC (EC107 E. coli ATCC25922): > 32 µg/mL
CC[C@H]1OC(=O)C(C)C(=O)[C@@H](C)[C@@H](O[C@@H]2OC(C)CC(N(C)C)C2O)[C@](C)(OC)C[C@@H](C)CN[C@H](C)[C@H]2N(CCCCn3cc(-c4cccc(N)c4)nn3)C(=O)O[C@]12C (stereo partly drawn) [FSM-20789] | 32 (≈ 38.6 µM) | > 32 | > 32 |  | > 32 | 2 (≈ 2.42 µM) | 0.5 (≈ 0.604 µM) | 4 (≈ 4.83 µM) | > 32 | > 32 | 4 (≈ 4.83 µM) | 2 (≈ 2.42 µM) | 8 (≈ 9.66 µM) | 4 (≈ 4.83 µM) | 8 (≈ 9.66 µM) | > 32 | 2 (≈ 2.42 µM) | 4 (≈ 4.83 µM) | 1 (≈ 1.21 µM) | 0.25 (≈ 0.302 µM) | MIC ([3]; ATCC49619): 0.0625 µg/mL (≈ 0.0755 µM); MIC (S. pneumoniae strains; [21]): 0.125 µg/mL (≈ 0.151 µM); MIC (E. coli strains): 16 µg/mL (≈ 19.3 µM); MIC (H. influenzae strains; [22]): 2 µg/mL (≈ 2.42 µM); MIC (H. influenzae strains; [23]): 8 µg/mL (≈ 9.66 µM); MIC (S. aureus strains; [24]): 2 µg/mL (≈ 2.42 µM); MIC (S. aureus strains; [25]): > 32 µg/mL; MIC (S. aureus strains; [26]): 2 µg/mL (≈ 2.42 µM); MIC (S. aureus strains; [27]): 4 µg/mL (≈ 4.83 µM); MIC (E. faecalis strains): 0.5 µg/mL (≈ 0.604 µM); MIC (K. pneumoniae strains): 4 µg/mL (≈ 4.83 µM)
